target: Serotonin 5HT7 receptors (Homo sapiens (Human), UniProt P34969); test: Radiolabel Binding Studies for Serotonin 5HT7 receptors; conditions: read-out: 5-HT7 % inhib @ 10 uM;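 note: displacement of a tritiated radioligand from membranes of stably transfected cells carrying recombinant 5-HT7 receptor, with filter-bound radioactivity measured by scintillation counting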
Sequence (P34969 whole entry): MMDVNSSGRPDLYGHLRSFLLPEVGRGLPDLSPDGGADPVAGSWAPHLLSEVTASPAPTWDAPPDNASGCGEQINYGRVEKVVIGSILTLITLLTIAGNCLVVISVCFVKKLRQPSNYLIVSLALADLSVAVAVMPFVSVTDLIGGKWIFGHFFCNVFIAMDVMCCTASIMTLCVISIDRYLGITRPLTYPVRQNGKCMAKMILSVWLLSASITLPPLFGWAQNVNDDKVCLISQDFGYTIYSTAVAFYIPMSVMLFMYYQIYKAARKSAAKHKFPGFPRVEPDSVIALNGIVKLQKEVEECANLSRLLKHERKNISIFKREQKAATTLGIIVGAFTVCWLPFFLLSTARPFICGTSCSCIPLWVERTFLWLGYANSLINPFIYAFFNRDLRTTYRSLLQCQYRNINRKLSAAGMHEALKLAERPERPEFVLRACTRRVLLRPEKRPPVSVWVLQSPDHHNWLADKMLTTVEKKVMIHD
Procedure: Radiolabel Binding Studies for Serotonin 5HT7 Receptors, Method 1:
Eleven dilutions (5× assay concentration) of the compound of the disclosure and chlorpromazine are prepared in the Assay Buffer by serial dilution to yield final corresponding assay concentrations ranging from 10 pM to 10 μM.
A stock concentration of 5 nM [^3H]LSD (lysergic acid diethyl amide) is prepared in 50 mM Tris-HCl, 10 mM MgCl2, 1 mM EDTA, pH 7.4 (Assay Buffer). Aliquots (50 μl) of radioligand are dispensed into the wells of a 96-well plate containing 100 μl of Assay Buffer. Duplicate 50-μl aliquots of the compound of the disclosure test and chlorpromazine positive control reference compound serial dilutions are added.
Membrane fractions of cells expressing recombinant 5HT7 receptors (50 μL) are dispensed into each well. The membranes are prepared from stably transfected cell lines expressing 5HT7 receptors cultured on 10-cm plates by harvesting PBS-rinsed monolayers, resuspending and lysing in chilled, hypotonic 50 mM Tris-HCl, pH 7.4, centrifuging at 20,000×g, decanting the supernatant and storing at −80° C.; the membrane preparations are resuspended in 3 ml of chilled Assay Buffer and homogenized by several passages through a 26 gauge needle before using in the assay.
The 250-μl reactions are incubated at room temperature for 1.5 hours, then harvested by rapid filtration onto 0.3% polyethyleneimine-treated, 96-well filter mats using a 96-well Filtermate harvester. Four rapid 500-μl washes are performed with chilled Assay Buffer to reduce non-specific binding. The filter mats are dried, then scintillant is added to the filters and the radioactivity retained on the filters is counted in a Microbeta scintillation counter.
Raw data (dpm) representing total radioligand binding (i.e., specific+non-specific binding) are plotted as a function of the logarithm of the molar concentration of the competitor (i.e., test or reference compound).

SMILES	inhibition at 10 µM
CCC1(CC)CC(CCN2CCN(c3ccccc3O)CC2)OC1=O (stereo not shown) [Entry 6]	99.9%
N#Cc1ccc(N2CCN(CCC3CC4(CCCCC4)C(=O)O3)CC2)nc1 (stereo not shown) [Entry 34]	64.2%
CCC1(CC)CC(CCN2CCN(C3CCCCC3)CC2)OC1=O (stereo not shown) [Entry 13]	82.5%
CCC1(CC)CC(CCN2CCN(c3cccc(O)c3)CC2)OC1=O (stereo not shown) [Entry 8]	93.6%
O=C1OC(CCN2CCN(c3cccc(O)c3)CC2)CC12CCCCC2 (stereo not shown) [Entry 21]	86.8%
O=C1OC(CCN2CCN(c3ccccc3O)CC2)CC12CCCCC2 (stereo not shown) [Entry 25]	93.3%
CCC1(CC)CC(CCN2CCN(c3ccccn3)CC2)OC1=O (stereo not shown) [Entry 9]	101%
O=C1OC(CCN2CCN(c3ccccc3N3CCOCC3)CC2)CC12CCCC2 (stereo not shown) [Entry 42]	97.2%
O=C1OC(CCN2CCN(c3ccccn3)CC2)CC12CCCCC2 (stereo not shown) [Entry 26]	97.4%
Cc1ccc(N2CCN(CC3CC(c4ccccc4)(c4ccccc4)C(=O)O3)CC2)cc1 (stereo not shown) [Entry 44]	40.8%
O=C1OC(CCN2CCN(c3cccnc3)CC2)CC12CCCCC2 (stereo not shown) [Entry 32]	76.3%
CC(C)c1cccc(C(C)C)c1N1CCN(CCC2CC3(CCCC3)C(=O)O2)CC1 (stereo not shown) [Entry 41]	25.2%
CCC1(CC)CC(CCN2CCN(c3ccc(C)cc3)CC2)OC1=O (stereo not shown) [Entry 4]	96.6%
O=C1OC(CCN2CCN(c3ccncc3)CC2)CC12CCCCC2 (stereo not shown) [Entry 30]	46.5%
COc1ccc(N2CCN(CCC3CC4(CCCCC4)C(=O)O3)CC2)cc1 (stereo not shown) [Entry 20]	78.1%
CCC1(CC)CC(CCN2CCN(c3ccccc3)CC2)OC1=O (stereo not shown) [Entry 11]	95.4%
O=C1OC(CCN2CCN(c3ccc(Cl)cc3)CC2)CC12CCCCC2 (stereo not shown) [Entry 28]	98%
CCC1(CC)CC(CCN2CCN(c3ccc(C#N)cc3)CC2)OC1=O (stereo not shown) [Entry 3]	88.4%
O=C1OC(CCN2CCN(c3ccc(C(F)(F)F)cn3)CC2)CC12CCCCC2 (stereo not shown) [Entry 35]	91.1%
O=C1OC(CCN2CCN(c3ccc(O)cc3)CC2)CC12CCCCC2 (stereo not shown) [Entry 31]	54.1%
N#Cc1ccc(N2CCN(CCC3CC4(CCCCC4)C(=O)O3)CC2)cc1 (stereo not shown) [Entry 33]	83.4%
O=C1OC(CCN2CCN(c3ccc(C(F)(F)F)cc3)CC2)CC12CCCCC2 (stereo not shown) [Entry 29]	96%
CCC1(CC)CC(CCN2CCN(c3ccc(N)cc3)CC2)OC1=O (stereo not shown) [Entry 12]	80.9%

SMILES	inhibition at 10 µM
CCC1(CC)CC(CCN2CCC(c3ccccc3)CC2)OC1=O (stereo not shown) [Entry 47]	29.3%
CCC1(CC)CC(CCN2CCC(C(O)(c3ccccc3)c3ccccc3)CC2)OC1=O (stereo not shown) [Entry 37]	69%
CCC1(CC)CC(CCN2CCN(c3ccc([N+](=O)[O-])cc3)CC2)OC1=O (stereo not shown) [Entry 2]	93.3%
CCC1(CC)CC(CCN2CCN(c3cccc(OC)c3)CC2)OC1=O (stereo not shown) [Entry 7]	94.8%
CCC1(CC)CC(CCN2CCC(=C(c3ccccc3)c3ccccc3)CC2)OC1=O (stereo not shown) [Entry 38]	96.5%
CC(C)(C)c1ccccc1N1CCN(CCC2CC3(CCCC3)C(=O)O2)CC1 (stereo not shown) [Entry 40]	81.7%
CCC1(CC)CC(CCN2CCN(C(c3ccccc3)c3ccccc3)CC2)OC1=O (stereo not shown) [Entry 15]	58.4%
COc1ccccc1N1CCN(CCC2CC3(CCCCC3)C(=O)O2)CC1 (stereo not shown) [Entry 24]	90.7%
O=C1OC(CCN2CCN(c3ccccc3Cl)CC2)CC12CCCCC2 (stereo not shown) [Entry 27]	97%
Cc1ccc(N2CCN(CCC3CC(c4ccccc4)(c4ccccc4)C(=O)O3)CC2)cc1 (stereo not shown) [Entry 45]	97.4%
O=C1OC(CCN2CCN(c3ccccc3)CC2)CC12CCCCC2 (stereo not shown) [Entry 22]	98%
COc1cccc(N2CCN(CCC3CC4(CCCCC4)C(=O)O3)CC2)c1 (stereo not shown) [Entry 23]	93.7%
CCC1(CC)CC(CCN2CCN(c3ccc(C)cc3C)CC2)OC1=O (stereo not shown) [Entry 17]	56.2%
CCC1(CC)CC(CCN2CCN(CCc3ccccc3)CC2)OC1=O (stereo not shown) [Entry 5]	53.1%
CCC1(CC)CC(CCN2CCN(c3ccccc3OC)CC2)OC1=O (stereo not shown) [Entry 43]	95.3%
O=C1OC(CCN2CCN(c3ccc(Cl)cn3)CC2)CC12CCCCC2 (stereo not shown) [Entry 36]	96.7%
CCC1(CC)CC(CCN2CCN(c3ccccc3C)CC2)OC1=O (stereo not shown) [Entry 16]	58.2%
CC(C)c1ccccc1N1CCN(CCC2CC3(CCCC3)C(=O)O2)CC1 (stereo not shown) [Entry 39]	96.1%
Cc1ccc(N2CCN(CCCC3CC(c4ccccc4)(c4ccccc4)C(=O)O3)CC2)cc1 (stereo not shown) [Entry 46]	96.8%
CCC1(CC)CC(CCN2CCN(c3c(C)cccc3C)CC2)OC1=O (stereo not shown) [Entry 10]	70.4%
CCC1(CC)CC(CCN2CCc3ccccc3C2)OC1=O (stereo not shown) [Entry 18]	82%
CCC1(CC)CC(CCN2CCN(c3ccc(O)cc3)CC2)OC1=O (stereo not shown) [Entry 1]	95.9%
CCC1(CC)CC(CCN2CCN(c3ccccc3C(C)C)CC2)OC1=O (stereo not shown) [Entry 14]	54.3%

From patent US10239868B2, “5-hydroxytryptamine receptor 7 activity modulators and their method of use” (TEMPLE UNIVERSITY OF THE COMMONWEALTH SYSTEM OF HIGHER …, priority 2013, dated 2019)
